The test deals with P388 leukemia ip, CD2F1 mice, survival T/C. Kind of test: NCI In Vivo Anticancer Drug Screen. Data for tumor model P388 Leukemia (intraperitoneal) in CD2F1 (CDF1) mice. The settings on record: endpoint: median survival time, higher = longer survival. In outline: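 Mice carrying the transplanted tumor received test compound or vehicle. Survival was recorded in each group, and the value is the treated-group measurement divided by that of the vehicle-treated control group.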

The mark [1] stands for this setting: dose: 100.0 mg/kg/injection, schedule: Q01DX009 (ip), vehicle: Klucel (hydroxypropylcellulose) (HPC).
Where [2] appears, read: dose: 200.0 mg/kg/injection, schedule: Q01DX009 (ip), vehicle: Klucel (hydroxypropylcellulose) (HPC).
Setting [3] is: dose: 50.0 mg/kg/injection, schedule: Q01DX009 (ip), vehicle: saline.
The mark [4] stands for this setting: dose: 100.0 mg/kg/injection, schedule: Q01DX009 (ip), vehicle: saline.
The mark [5] stands for this setting: dose: 200.0 mg/kg/injection, schedule: Q01DX009 (ip), vehicle: saline.
[6] abbreviates: dose: 12.5 mg/kg/injection, schedule: Q01DX009 (ip), vehicle: saline with Tween-80.
Setting [7] is: dose: 25.0 mg/kg/injection, schedule: Q01DX009 (ip), vehicle: saline with Tween-80.
Setting [8] is: dose: 100.0 mg/kg/injection, schedule: Q01DX009 (ip), vehicle: saline with Tween-80.
The mark [9] stands for this setting: dose: 200.0 mg/kg/injection, schedule: Q01DX009 (ip), vehicle: saline with Tween-80.
[10] abbreviates: dose: 60.0 mg/kg/injection, schedule: Q01DX005 (ip), vehicle: saline with Tween-80.
The mark [11] stands for this setting: dose: 120.0 mg/kg/injection, schedule: Q01DX005 (ip), vehicle: saline with Tween-80.
Setting [12] is: dose: 240.0 mg/kg/injection, schedule: Q01DX005 (ip), vehicle: saline with Tween-80.
[13] abbreviates: dose: 100.0 mg/kg/injection, schedule: Q04DX003 (ip), vehicle: saline with Tween-80.

Where “and” joins values, the source holds several entries; their conditions need not be identical. Equal entries are not always repeated. Inconclusive results and toxic doses are left out.

Results on 24 molecules are retold here after PubChem BioAssay AID330 (DTP/NCI, 2004).

With `O=c1oc(-c2ccccc2Br)ns1`, the T/C runs as follows: under setting [1], 107 % of control; under setting [2], 97 % of control.
With `CCOC(=O)N1C=CC(c2ccccc2)=CC2ON=C(c3c(C)cc(C)cc3C)N21` (centres undefined), the T/C reads like this: under setting [3], 106 % of control; under setting [4], 108 % of control; under setting [5], 99 % of control.
Turning to `CCCCCCC(/C=C/c1ccc(Cl)c(Cl)c1)=N\Nc1ccc(Cl)cc1Cl`, the T/C under setting [6] was 94 % of control, the T/C under setting [7] is 94 % of control, the T/C under setting [8] is 88 % of control and the T/C under setting [9] was 87 % of control.
For the molecule `CN(C)c1c2c(oc(=O)c1Cl)-c1ccccc1SCC2`, the T/C is 101 % of control under setting [10], 100 % of control under setting [11] and 91 % of control under setting [12].
Regarding `FC(F)(F)S.[Ag]`, the T/C was 107 % of control under setting [6] and 116 % of control under setting [7].
Take `COc1ccc(/C=C2/N=C(c3ccccc3)OC2=O)cc1`: the T/C by setting is: under setting [10], 93 % of control; under setting [11], 93 % of control; under setting [12], 87 % of control.
As for `NC(C(=O)O)c1ccc(CBr)cc1` (centres undefined), the T/C runs as follows: (dose: 25.0 mg/kg/injection, schedule: Q04DX003 (ip), vehicle: saline with Tween-80) 151 % of control; under setting [13], 151 % of control and 165 % of control.
Consider `COc1cccc2c1C(=O)c1c(O)c3c(c(O)c1C2=O)C[C@@](O)(C(C)O)C[C@@H]3OC1CC(NCc2ccccc2)C(O)C(C)O1` (some centres undefined), for which the T/C (dose: 0.78 mg/kg/injection, schedule: Q01DX009 (ip), vehicle: water) is 158 % of control; the T/C (dose: 1.56 mg/kg/injection, schedule: Q01DX009 (ip), vehicle: water) is 163 % of control; the T/C (dose: 3.13 mg/kg/injection, schedule: Q01DX009 (ip), vehicle: water) is 181 % of control and 194 % of control; the T/C (dose: 6.25 mg/kg/injection, schedule: Q01DX009 (ip), vehicle: water) was 215 % of control and 226 % of control.
As for `O=c1c(Cl)c(Cl)c(=O)c2sc3cc(Cl)ccc3[nH]c1=2`, the T/C was 98 % of control under setting [3], 102 % of control under setting [4] and 101 % of control under setting [5].
With `CCOC(=O)CCC(NC(=O)c1ccc(NCc2ccc3nc(N)nc(N)c3c2C)cc1)C(=O)OCC` (centres undefined), the T/C reads like this: (dose: 0.01 mg/kg/injection, schedule: Q01DX009 (ip), vehicle: saline + alcohol) 108 % of control and 109 % of control; (dose: 0.02 mg/kg/injection, schedule: Q01DX009 (ip), vehicle: saline + alcohol) 98 % of control and 113 % of control; (dose: 0.03 mg/kg/injection, schedule: Q01DX009 (ip), vehicle: saline + alcohol) 153 % of control and 162 % of control; (dose: 0.06 mg/kg/injection, schedule: Q01DX001 (ip), vehicle: saline + alcohol) 100 % of control and 88 % of control; (dose: 0.06 mg/kg/injection, schedule: Q01DX009 (ip), vehicle: saline + alcohol) 170 % of control; (dose: 0.13 mg/kg/injection, schedule: Q01DX001 (ip), vehicle: saline + alcohol) 111 % of control and 117 % of control. Moreover, where the note is “dose: 0.25 mg/kg/injection, schedule: Q01DX001 (ip), vehicle: saline + alcohol”, the T/C is 109 % of control and 110 % of control.
Consider `O=C1/C(=C/c2ccncc2)CCCc2ccccc21`, for which the T/C is, setting by setting: (dose: 60.0 mg/kg/injection, schedule: Q01DX005 (ip), vehicle: Klucel (hydroxypropylcellulose) (HPC)) 102 % of control; (dose: 120.0 mg/kg/injection, schedule: Q01DX005 (ip), vehicle: Klucel (hydroxypropylcellulose) (HPC)) 104 % of control.
`Cn1c(=O)c2c(nc3n2CC(CF)O3)n(C)c1=O` (centres undefined): the T/C runs as follows: (dose: 50.0 mg/kg/injection, schedule: Q01DX009 (ip), vehicle: Klucel (hydroxypropylcellulose) (HPC)) 104 % of control; under setting [1], 104 % of control; under setting [2], 99 % of control.
Turning to `COc1cc2cnc(-c3ccncc3)cc2cc1OC`, the T/C is 95 % of control (dose: 100.0 mg/kg/injection, schedule: Q04DX003 (ip), vehicle: saline) and 108 % of control (dose: 200.0 mg/kg/injection, schedule: Q04DX003 (ip), vehicle: saline).
For the molecule `COC1=Cc2c(O)c3c(c(O)c2C(OC2CC(N)C(O)C(C)O2)C1)C(=O)c1c(OC)cccc1C3=O` (centres undefined), the T/C is 98 % of control (dose: 3.13 mg/kg/injection, schedule: Q04DX003 (ip), vehicle: water); 98 % of control (dose: 6.25 mg/kg/injection, schedule: Q04DX003 (ip), vehicle: water); 102 % of control (dose: 12.5 mg/kg/injection, schedule: Q04DX003 (ip), vehicle: water); 109 % of control (dose: 25.0 mg/kg/injection, schedule: Q04DX003 (ip), vehicle: water); 107 % of control (dose: 50.0 mg/kg/injection, schedule: Q04DX003 (ip), vehicle: water).
`CCN(CC)CCCNC(c1ccc(OC)c(OC)c1)C(Cl)(Cl)Cl` (centres undefined): the T/C runs as follows: (dose: 60.0 mg/kg/injection, schedule: Q01DX005 (ip), vehicle: saline) 94 % of control; (dose: 120.0 mg/kg/injection, schedule: Q01DX005 (ip), vehicle: saline) 101 % of control.
For `NC(CCl)C(=O)O` (centres undefined), the T/C is 100 % of control (dose: 50.0 mg/kg/injection, schedule: Q01DX005 (ip), vehicle: saline); 100 % of control (dose: 100.0 mg/kg/injection, schedule: Q01DX005 (ip), vehicle: saline); 100 % of control (dose: 200.0 mg/kg/injection, schedule: Q01DX005 (ip), vehicle: saline).
In the case of `Cn1c(=O)sc2ccccc21`, the T/C runs as follows: (dose: 25.0 mg/kg/injection, schedule: Q04DX002 (ip), vehicle: saline with Tween-80) 102 % of control; (dose: 50.0 mg/kg/injection, schedule: Q04DX002 (ip), vehicle: saline with Tween-80) 104 % of control; (dose: 100.0 mg/kg/injection, schedule: Q04DX002 (ip), vehicle: saline with Tween-80) 110 % of control.
In the case of `O=[N+]([O-])c1ccc(SC2=NCCN2Cc2ccccc2)c(Cl)c1`, the T/C runs as follows: (dose: 50.0 mg/kg/injection, schedule: Q01DX009 (ip), vehicle: saline with Tween-80) 88 % of control; under setting [8], 101 % of control; under setting [9], 94 % of control.
In the case of `CC(CN)OS(=O)(=O)O` (centres undefined), the T/C reads like this: under setting [13], 100 % of control; (dose: 200.0 mg/kg/injection, schedule: Q04DX003 (ip), vehicle: saline with Tween-80) 100 % of control; (dose: 400.0 mg/kg/injection, schedule: Q04DX003 (ip), vehicle: saline with Tween-80) 95 % of control.
For the molecule `O=C/C(=N/Nc1ccc([N+](=O)[O-])cc1)c1ccccc1`, the T/C is, setting by setting: (dose: 37.5 mg/kg/injection, schedule: Q01DX009 (ip), vehicle: saline with Tween-80) 94 % of control; (dose: 75.0 mg/kg/injection, schedule: Q01DX009 (ip), vehicle: saline with Tween-80) 90 % of control; (dose: 150.0 mg/kg/injection, schedule: Q01DX009 (ip), vehicle: saline with Tween-80) 86 % of control.
Consider `O=C1c2cccc3cccc(c23)C(=O)N1CCO`, for which the T/C by setting is: (dose: 50.0 mg/kg/injection, schedule: Q01DX005 (ip), vehicle: saline with Tween-80) 104 % of control; (dose: 100.0 mg/kg/injection, schedule: Q01DX005 (ip), vehicle: saline with Tween-80) 96 % of control; (dose: 200.0 mg/kg/injection, schedule: Q01DX005 (ip), vehicle: saline with Tween-80) 100 % of control.
Turning to `CCOC(=O)c1c(C)csc1NC(=O)CSCC(=O)OC`, the T/C under setting [10] was 99 % of control, the T/C under setting [11] is 100 % of control and the T/C under setting [12] is 94 % of control.
Consider `COc1ccc2c(c1)CCn1c(C)c(COC(=O)NC3CCCCC3)c(COC(=O)NC3CCCCC3)c1-2`, for which the T/C runs as follows: (dose: 50.0 mg/kg/injection, schedule: Q01DX009 (ip), vehicle: distilled water + Tween-80) 151 % of control and 164 % of control; (dose: 100.0 mg/kg/injection, schedule: Q01DX009 (ip), vehicle: distilled water + Tween-80) 92 % of control.
Turning to `CNC(=O)CCCCCNC(C)=O`, the T/C reads like this: (dose: 50.0 mg/kg/injection, schedule: Q01DX005 (ip), vehicle: Klucel (hydroxypropylcellulose) (HPC)) 98 % of control; (dose: 100.0 mg/kg/injection, schedule: Q01DX005 (ip), vehicle: Klucel (hydroxypropylcellulose) (HPC)) 95 % of control; (dose: 200.0 mg/kg/injection, schedule: Q01DX005 (ip), vehicle: Klucel (hydroxypropylcellulose) (HPC)) 90 % of control; (dose: 400.0 mg/kg/injection, schedule: Q01DX005 (ip), vehicle: Klucel (hydroxypropylcellulose) (HPC)) 97 % of control.
